The values below come from PubChem BioAssay (NCI).

Test systems include SNB-19 CNS; K-562 leukemia; CCRF-CEM leukemia; T-47D breast; A498 renal; NCI-H226 lung; MALME-3M melanoma; RPMI-8226 leukemia; DU-145 prostate; IGROV1 ovarian.
What all share (experiment): inhibition of tumour cell growth, NCI panel, 48 h

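Test compounds were applied to cells in 96-well plates for 48 hours at 5 doses. At the GI50, growth is halved. TGI marks complete inhibition of growth.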 Where a SMILES comes first, the peptide text is derived from it. [ ]: non-standard residue; d: D form. Ava = NCCCCC(=O)O; Mpa = O=C(O)CCS

Consider `CC(NC(=O)CCS)C(=O)NC(C)C(=O)NC(Cc1c[nH]c2ccccc12)C(=O)NC(Cc1c[nH]cn1)C(=O)NC(CO)C(=O)NC(Cc1c[nH]c2ccccc12)C(=O)NCCCCC(=O)NC(C)C(=O)NC(CCC(N)=O)C(=O)NC(CCCCN)C(=O)NC(C)C(=O)NC(CCCNC(=N)N)C(=O)NC(CCCCN)C(N)=O` (stereo not drawn) ([Mpa]AAWHSW[Ava]AQKARK-NH2; configuration not given here), for which the TGI in the experiment with SNB-19 CNS is greater than 100 µM; in the experiment with K-562 leukemia, 99.4 µM; in the experiment on CCRF-CEM leukemia, greater than 100 µM; in the experiment on T-47D breast, 64 µM; in the experiment with A498 renal, greater than 100 µM; in the experiment on NCI-H226 lung, greater than 100 µM. Besides, the TGI with MALME-3M melanoma was 36.9 µM; in the experiment with RPMI-8226 leukemia, greater than 100 µM; with DU-145 prostate it was greater than 100 µM; in the experiment with IGROV1 ovarian, greater than 100 µM.
`O=C1c2c(c3c4cc(F)ccc4oc3c3[nH]c4ccccc4c23)C(=O)N1O`: the GI50 with SNB-19 CNS was 1790 nM; in the experiment on K-562 leukemia, 2090 nM; with CCRF-CEM leukemia, 239 nM; with T-47D breast, 1590 nM; with A498 renal it was 1230 nM; in the experiment on NCI-H226 lung, 3.85 µM. In addition, the GI50 is 1370 nM with MALME-3M melanoma, 1220 nM in the experiment with RPMI-8226 leukemia, 2150 nM with DU-145 prostate and 460 nM in the experiment with IGROV1 ovarian. For the same compound, the TGI with SNB-19 CNS is 24.9 µM; in the experiment with K-562 leukemia, greater than 100 µM; in the experiment on CCRF-CEM leukemia, greater than 100 µM; with T-47D breast, greater than 100 µM; with A498 renal, 5.2 µM; in the experiment on NCI-H226 lung, 73.8 µM. In addition, the TGI is 6.46 µM in the experiment on MALME-3M melanoma, 7.31 µM in the experiment with RPMI-8226 leukemia, greater than 100 µM in the experiment with DU-145 prostate and 11.1 µM in the experiment on IGROV1 ovarian.
Turning to `CCOC(=O)NC(Nc1ccc(F)cc1F)(C(F)(F)F)C(F)(F)F`, the TGI in the experiment on SNB-19 CNS, in the experiment with K-562 leukemia, with CCRF-CEM leukemia, with T-47D breast, with A498 renal and in the experiment on NCI-H226 lung was greater than 100 µM throughout. Moreover, the TGI with MALME-3M melanoma, in the experiment on RPMI-8226 leukemia, in the experiment on DU-145 prostate and in the experiment on IGROV1 ovarian was greater than 100 µM in each case.
With `CCOC(CBr)OC1C(=O)OCC1(C)C` (stereo not drawn), the TGI with SNB-19 CNS, with K-562 leukemia, with CCRF-CEM leukemia, in the experiment with T-47D breast, in the experiment on A498 renal and with NCI-H226 lung was greater than 100 µM throughout. Besides, the TGI with MALME-3M melanoma, with RPMI-8226 leukemia, with DU-145 prostate and in the experiment on IGROV1 ovarian was greater than 100 µM throughout.
Consider `Nc1cc(CO)cc(Nc2c3ccccc3nc3ccccc23)c1`, for which the TGI was greater than 100 µM in the experiment with K-562 leukemia; greater than 100 µM in the experiment on CCRF-CEM leukemia; 34.4 µM in the experiment on T-47D breast; 46.6 µM in the experiment on A498 renal; 34.9 µM in the experiment on NCI-H226 lung; 31.8 µM with MALME-3M melanoma. Moreover, the TGI in the experiment on RPMI-8226 leukemia was greater than 100 µM; with DU-145 prostate it was 73.1 µM; with IGROV1 ovarian it was 31.3 µM.
As to `Cc1nc2c(Cl)cc(Cl)cc2c2c1CCO2`, the TGI with SNB-19 CNS, with K-562 leukemia, in the experiment with CCRF-CEM leukemia, in the experiment on T-47D breast, with A498 renal and in the experiment with NCI-H226 lung was greater than 100 µM each time. The TGI in the experiment on MALME-3M melanoma, with RPMI-8226 leukemia, in the experiment with DU-145 prostate and in the experiment with IGROV1 ovarian was greater than 100 µM in each case.
Turning to `Nc1cc(C2CCCc3c2[nH]c2ccccc32)ccc1O` (stereo not drawn), the TGI with SNB-19 CNS, in the experiment with K-562 leukemia, with CCRF-CEM leukemia, in the experiment on T-47D breast, with A498 renal and in the experiment on NCI-H226 lung was greater than 100 µM throughout. Further, the TGI in the experiment with MALME-3M melanoma was greater than 100 µM; with RPMI-8226 leukemia it was 54.9 µM; in the experiment on DU-145 prostate, greater than 100 µM; with IGROV1 ovarian, greater than 100 µM.
As for `CS(=O)(=O)OCCN(CCOS(C)(=O)=O)c1ccc(C=Nc2ccc(-c3csc(Cc4ccccc4)n3)cc2)c(Cl)c1`, the TGI is greater than 89.6 µM in the experiment with SNB-19 CNS; 76.9 µM in the experiment on K-562 leukemia; greater than 61.2 µM with CCRF-CEM leukemia; greater than 84.2 µM in the experiment with T-47D breast; 0.321 µM with A498 renal; 1.79 µM in the experiment on NCI-H226 lung. In addition, the TGI was greater than 72.8 µM with MALME-3M melanoma, greater than 100 µM with RPMI-8226 leukemia, greater than 86.5 µM in the experiment on DU-145 prostate and greater than 74.2 µM with IGROV1 ovarian.
With `CCCC(=O)OCC1OC(n2cc(F)c(=O)[nH]c2=O)CC1OC(=O)CCC` (stereo not drawn), the TGI was greater than 10 µM in the experiment on SNB-19 CNS; greater than 10 µM with K-562 leukemia; greater than 10 µM in the experiment on CCRF-CEM leukemia; greater than 10 µM in the experiment with T-47D breast; greater than 9.23 µM in the experiment on A498 renal; greater than 10 µM in the experiment on NCI-H226 lung. Besides, the TGI was greater than 10 µM in the experiment on MALME-3M melanoma, greater than 10 µM with RPMI-8226 leukemia, greater than 2.62 µM in the experiment on DU-145 prostate and greater than 10 µM in the experiment with IGROV1 ovarian.
As to `Cc1[nH]c(=O)nc(N/N=C/c2c3ccccc3c(Cl)c3ccccc23)c1C(=O)Nc1ccc(Cl)cc1`, the TGI in the experiment with SNB-19 CNS is greater than 100 µM; in the experiment with K-562 leukemia, greater than 100 µM; in the experiment with CCRF-CEM leukemia, 89.3 µM; in the experiment with T-47D breast, greater than 100 µM; in the experiment on A498 renal it was greater than 100 µM; in the experiment on NCI-H226 lung it was greater than 100 µM. Further, the TGI with MALME-3M melanoma, with RPMI-8226 leukemia, with DU-145 prostate and in the experiment with IGROV1 ovarian was greater than 100 µM throughout.
Turning to `CCOC(=O)/C(C(N)=O)=C(\O)C(=O)/C=C(\O)c1ccc(Cl)cc1`, the TGI in the experiment on SNB-19 CNS was greater than 100 µM; in the experiment with CCRF-CEM leukemia, 24.4 µM; in the experiment on T-47D breast it was 47.9 µM; in the experiment on A498 renal it was greater than 100 µM; in the experiment on NCI-H226 lung, 48.8 µM; in the experiment with MALME-3M melanoma it was 45.1 µM. In addition, the TGI in the experiment with RPMI-8226 leukemia turned out to be 44.8 µM; in the experiment with DU-145 prostate it was 35.8 µM; in the experiment on IGROV1 ovarian, 36.2 µM.
Regarding `CC(=O)C1=C(C)N(c2ccccc2)C2(O)C3=C(C(=O)c4ccccc4C3=O)C(O)=CC12Cl` (stereo not drawn), the TGI in the experiment on SNB-19 CNS is 23.5 µM; in the experiment with K-562 leukemia it was greater than 100 µM; in the experiment with CCRF-CEM leukemia, 62.5 µM; in the experiment with T-47D breast, greater than 100 µM; in the experiment on A498 renal, 30.5 µM; with NCI-H226 lung, 55.7 µM. In addition, the TGI was 4.91 µM in the experiment on MALME-3M melanoma, 4.39 µM in the experiment on RPMI-8226 leukemia, greater than 100 µM with DU-145 prostate and 8.25 µM in the experiment on IGROV1 ovarian.
